Experimental data from patent US20240116863A1, “DIPHENYL THIOUREA AND DIPHENYL UREA DERIVATIVES AS INHIBITORS OF ENDOCYTOSIS” (priority 2022, published 2024).
“Also recorded” adds a separate entry of the source. Where two headings read alike, the source gives them in different places.

Columns and labels:
[1] = test system: transferrin endocytosis in A549 cells; assay type: cell-based; conditions: 10 μM
[2] = test system: EGF endocytosis in A549 cells; assay type: cell-based; conditions: 10 μM
[3] = test system: cholera toxin B (CTXB) endocytosis in A549 cells; assay type: cell-based; conditions: 10 μM
[4] = test system: organelle acidification in A549 cells; assay type: cell-based; conditions: 10 μM, 1 h
[5] = test system: A549 cells; assay type: cell-based, Human
Experimental: Human lung epithelial cells (A549) were seeded in a 96-well optical-bottom plate. When the cells reached 70-80% confluency, the cells were treated with the compounds (DPUDs and DPTUD) dissolved in DMSO) (50 ∥M) for 12 h at 37° C. Following treatment, the cells were washed with PBS and fixed with 4% formaldehyde for 20 min at room temperature. Nucleus was stained with Hoechst diluted in PBS (1:10000). High-content microscopy and image analysis were performed to quantitate cell number (FIG. 3). All data are represented as mean±SD. The P-value was determined using one-way ANOVA with multiple comparisons w.r.t. DMSO. ns: P>0.05, *P<0.05, **P<0.01, ***P<0.001, ****P<0.0001.

[6] = test system: SARS-CoV-2 Delta (B.1.617.2) and Omicron (B.1.1.529) strains; test: Infection of Vero-E6 cells with additional SARS-CoV-2 strains; assay type: cell-based
[7] = test system: IAV (WSN); assay type: cell-based, influenza A virus
[8] = test system: IAV (WSN); assay type: in vivo, C57BL/6 mice
[9] = test system: IAV (X-31); assay type: cell-based, influenza A virus; conditions: 10 μM, A549 cells
[10] = test system: cellular endocytosis; conditions: cited from earlier work

In the case of `FC(F)(F)c1cc(NC(=S)Nc2cc(C(F)(F)F)cc(C(F)(F)F)c2)cc(C(F)(F)F)c1` [DPTUD, 1,3-bis(3,5-bis(trifluoromethyl)phenyl)thiourea], the transferrin uptake [1] is reported as “significantly blocked”, the EGF uptake [2] is reported as “significantly blocked” and the “cholera toxin B (CTXB) uptake” value [3] is reported as “significantly blocked”. For the same molecule, the “organelle acidification (LysoTracker-positive signal)” value [4] was “robustly inhibited” and the “cytotoxicity” value ([5]; 50 μM, 12 h, A549 cells) was “did not show cytotoxicity”.

In the case of `O=C(Nc1cc(C(F)(F)F)cc(C(F)(F)F)c1)Nc1cc(C(F)(F)F)cc(C(F)(F)F)c1` [DPUD-1, 1,3-bis(3,5-bis(trifluoromethyl)phenyl)urea], the “effect on infection with SARS-CoV-2 Delta and Omicron” value [6] is reported as “highly effective; also recorded: Reduced infection”, the “IAV (WSN) titre in virus plaque assay” value [7] is reported as “significant reduction” and the “body weight recovery of the infected mice” value ([8]; […], 1 mg/kg i.p. twice daily 5 days) is reported as “most effective”. For the same molecule, the “lung viral titres (RT-PCR of NP gene and plaque assay)” value ([8]; mouse, in vivo) was “significant reduction”, the “survival of infected mice” value ([8]; mouse, in vivo) was “Better survival” and the “virus particle internalization in live cells” value [9] was “majority of the virus particles failed to enter the cells”.

In the case of `O=C(Nc1ccc(C(F)(F)F)cc1)Nc1ccc(C(F)(F)F)cc1` [DPUD-2, 1,3-bis(4-(trifluoromethyl)phenyl)urea], the “effect on infection with SARS-CoV-2 Delta and Omicron” value [6] is reported as “highly effective; also recorded: Reduced infection”.

In the case of `O=C(Nc1cc(F)cc(F)c1)Nc1cc(F)cc(F)c1` [DPUD-16, 1,3-bis(3,5-difluorophenyl)urea], the “effect on infection with SARS-CoV-2 Delta and Omicron” value [6] is reported as “Reduced infection”.

With `O=C(Nc1ccc(OC(F)(F)F)cc1)Nc1ccc(OC(F)(F)F)cc1` [DPUD-20, 1,3-bis(4-(trifluoromethoxy)phenyl)urea] the “effect on infection with SARS-CoV-2 Delta and Omicron” value [6] was “Reduced infection”.

For `O=C(Nc1cc(Br)cc(Br)c1)Nc1cc(Br)cc(Br)c1` [DPUD-23, 1,3-bis(3,5-dibromophenyl)urea], the “effect on infection with SARS-CoV-2 Delta and Omicron” value [6] was “highly effective; also recorded: Reduced infection”.

For `CN(C)CCCN1c2ccccc2Sc2ccc(Cl)cc21` [chlorpromazine, reference compound], the cytotoxicity ([5]; human) is listed as > 75% and the “inhibitory concentration of known endocytosis inhibitor” value ([10]; 7× higher than the derivatives) is listed as 70 µM.

For methyl-β-cyclodextrin, the “inhibitory concentration of known endocytosis inhibitor” value ([10]; 100× higher than the derivatives) is given as 1000 µM.
